Like-named read-outs stand apart in the source and are kept apart here.
What was measured:
[1] = system: Ps. aeruginosa IF03445; assay: in vitro antibacterial activity, agar plate dilution method (MIC); assay type: cell-based, Pseudomonas aeruginosa; conditions: Pseudomonas aeruginosa, IF03445, 16 h, read-out: Minimum Inhibitory Concentration (MIC), Ps. aeruginosa IF03445; 10^6 CFU/ml
Summary of the method: (§1)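 MICs (μg/ml) were read after 16 hours at 37°C. Test strains, grown overnight in Mueller Hinton broth, were spotted at 10^6 CFU/ml onto Mueller Hinton agar plates containing the compounds at a range of concentrations.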

[2] = system: Ps. aeruginosa AKR17; assay: as above; assay type: cell-based, Pseudomonas aeruginosa; conditions: Pseudomonas aeruginosa
Summary of the method: as §1

[3] = system: Ps. aeruginosa AK 109; assay: as above; assay type: cell-based, Pseudomonas aeruginosa; conditions: Pseudomonas aeruginosa, AK109, 16 h
Summary of the method: as §1

[4] = system: E. coli CSH2 (RK1); assay: microbe, parasite or virus in culture; assay type: cell-based; conditions: Escherichia coli, 16 h, read-out: Minimum Inhibitory Concentration (MIC), *E. coli CSH2 (RK1), lactamase-producing strain; 10^6 CFU/ml
Summary of the method: as §1

[5] = system: E. coli CSH(RE45); assay: microbe, parasite or virus in culture; assay type: cell-based; conditions: Escherichia coli, 16 h, read-out: Minimum Inhibitory Concentration (MIC), *E. coli CSH(RE45), lactamase-producing strain; 10^6 CFU/ml
Summary of the method: as §1

[6] = system: Ps. cepacia 23; assay: in vitro antibacterial activity, agar plate dilution method (MIC); assay type: cell-based, Pseudomonas cepacia; conditions: read-out: Minimum Inhibitory Concentration (MIC)
Summary of the method: as §1

[7] = system: M. morganii GN5407; assay: as above; assay type: cell-based; conditions: Morganella morganii, GN5407, 16 h, read-out: Minimum Inhibitory Concentration (MIC), *M. morganii GN5407, lactamase-producing strain; 10^6 CFU/ml
Summary of the method: as §1

[8] = system: K. pneumoniae PCI-602; assay: as above; assay type: cell-based; conditions: Klebsiella pneumoniae, PCI602, 16 h, 10^6 CFU/ml
Summary of the method: as §1

[9] = system: E. cloacae 963; assay: as above; assay type: cell-based; conditions: Enterobacter cloacae, 963, 16 h, read-out: Minimum Inhibitory Concentration (MIC), E. cloacae 963; 10^6 CFU/ml
Summary of the method: as §1

[10] = system: E. cloacae Nek 39; assay: as above; assay type: cell-based; conditions: Enterobacter cloacae, NEK39, 16 h, read-out: Minimum Inhibitory Concentration (MIC), *E. cloacae Nek 39, lactamase-producing strain; 10^6 CFU/ml
Summary of the method: as §1

[11] = system: E. coli GN5482; assay: as above; assay type: cell-based; conditions: Escherichia coli, GN5482, 16 h
Summary of the method: as §1

[12] = system: K. oxytoca GN10650; assay: as above; assay type: cell-based; conditions: Klebsiella oxytoca, GN10650, 16 h, read-out: Minimum Inhibitory Concentration (MIC), *K. oxytoca GN10650, lactamase-producing strain; 10^6 CFU/ml
Summary of the method: as §1

[13] = system: K. pneumoniae No. 42; assay: as above; assay type: cell-based; conditions: Klebsiella pneumoniae, NO.42, 16 h, read-out: Minimum Inhibitory Concentration (MIC), *K. pneumoniae No. 42, lactamase-producing strain; 10^6 CFU/ml
Summary of the method: as §1

[14] = system: S. marcescens No. 16-2; assay: as above; assay type: cell-based; conditions: Serratia marcescens, NO.162, 16 h
Summary of the method: as §1

[15] = system: S. aureus 209P NIHJ-JC1; assay: as above; assay type: cell-based; conditions: Staphylococcus aureus, 16 h
Summary of the method: as §1

[16] = system: E. coli NIHJ JC2; assay: as above; assay type: cell-based; conditions: Escherichia coli, NIHJJC2, 16 h, read-out: Minimum Inhibitory Concentration (MIC), E. coli NIHJ JC2, 10^6 CFU/ml, 37° C.
Summary of the method: as §1

[17] = system: S. marcescens IAM 1184; assay: as above; assay type: cell-based; conditions: Serratia marcescens, IAM1184, 16 h, read-out: Minimum Inhibitory Concentration (MIC)
Summary of the method: as §1

[18] = system: P. vulgaris HX-19; assay: as above; assay type: cell-based; conditions: Proteus vulgaris, HX19, 16 h, read-out: Minimum Inhibitory Concentration (MIC)
Summary of the method: as §1

[19] = system: P. vulgaris No. 33; assay: as above; assay type: cell-based; conditions: Proteus vulgaris, NO.33, 16 h, read-out: Minimum Inhibitory Concentration (MIC), *P. vulgaris No. 33, lactamase-producing strain; 10^6 CFU/ml
Summary of the method: as §1

[20] = system: A. calcoaceticus No. 4; assay: as above; assay type: cell-based, Acinetobacter calcoaceticus; conditions: Acinetobacter calcoaceticus, NO.4, 16 h, 10^6 CFU/ml
Summary of the method: as §1

[21] = AKR17, 16 h, read-out: Minimum Inhibitory Concentration (MIC), Ps. aeruginosa AKR17, 10^6 CFU/ml
[22] = Burkholderia cepacia, 16 h, Ps. cepacia 23, 10^6 CFU/ml
[23] = read-out: Minimum Inhibitory Concentration (MIC), K. pneumoniae PCI-602
[24] = read-out: Minimum Inhibitory Concentration (MIC)
[25] = S. marcescens IAM 1184, 10^6 CFU/ml
[26] = A. calcoaceticus No. 4, read-out: Minimum Inhibitory Concentration (MIC)
[27] = read-out: Minimum Inhibitory Concentration (MIC), Ps. aeruginosa AK 109, 10^6 CFU/ml
[28] = read-out: Minimum Inhibitory Concentration (MIC), *E. coli GN5482, lactamase-producing strain, 10^6 CFU/ml
[29] = S. aureus 209P NIHJ-JC1, 10^6 CFU/ml, 37° C., 16 hours, read-out: Minimum Inhibitory Concentration (MIC)
[30] = 16 h, Ps. aeruginosa AKR17, 10^6 CFU/ml, read-out: Minimum Inhibitory Concentration (MIC)

In the case of `Nc1nc(/C(=N/OC2(C(=O)O)CC2)C(=O)N[C@@H]2C(=O)N3C(C(=O)O)=C(CSc4nnc(-c5ccc(O)c(O)c5)s4)CS[C@H]23)cs1` [Ex. 35, disodium 7β-[2-(2-aminothiazol-4-yl)-2-(1-carboxylate-1-cyclooropoxyimino)acetamido]-3-[5-(3,4-dihydroxyphenyl)-1,3,4-thiadiazol-2-yl]thiomethyl-3-cephem-4-carboxylate], the MIC [1] is reported as 0.39 µg/mL, the MIC [2, 21] is reported as 1.56 µg/mL and the MIC ([3]; Ps. aeruginosa AK 109, 10^6 CFU/ml, read-out: Minimum Inhibitory Concentration (MIC)) is reported as 0.2 µg/mL. The MIC [4] was < 0.006 µg/mL, the MIC [5] was < 0.006 µg/mL and the MIC [6, 22] was < 0.006 µg/mL. For the same molecule, the MIC [7] was 0.05 µg/mL, the MIC [8, 23] was < 6 ng/mL and the MIC [9] was 0.05 µg/mL. The MIC [10] was 0.05 µg/mL, the MIC [11, 24] was 0.39 µg/mL and the MIC [12] was 0.025 µg/mL. For the same molecule, the MIC [13] was 0.0125 µg/mL, the MIC [14, 24] was 0.39 µg/mL and the MIC [15, 24] was 12.5 µg/mL. The MIC [16] was 0.2 µg/mL, the MIC [17, 25] was 0.025 µg/mL and the MIC ([18]; P. vulgaris HX-19, 10^6 CFU/ml) was < 0.006 µg/mL. The MIC [19] was 0.0125 µg/mL and the MIC [20, 26] was 0.05 µg/mL.

`CC(C)(ON=C(C(=O)NC1C(=O)N2C(C(=O)O)=C(CSc3nc(-c4ccc(O)c(O)c4)c(CC(=O)O)s3)CSC12)c1csc(N)n1)C(=O)O` (stereo not drawn) [Example 59 (I), trisodium 7β-[2-(2-aminothiazol-4-yl)-2-(1-carboxylate-1-methylethoxyimino)acetamido]-3-[4-(3,4-dihydroxyphenyl)-5-carboxylatemethylthiazol-2yl]thiomethyl-3-cephem-4-carboxylate] was tested, and the MIC [1] was 1.56 µg/mL, the MIC [2, 21] was 1.56 µg/mL and the MIC [3, 27] was 1.56 µg/mL. For the same molecule, the MIC [4] was 0.025 µg/mL, the MIC [5] was 0.05 µg/mL and the MIC [6, 22] was < 0.006 µg/mL. For the same molecule, the MIC [7] was 0.1 µg/mL, the MIC ([8]; K. pneumoniae PCI-602, read-out: Minimum Inhibitory Concentration (MIC)) was 12.5 ng/mL and the MIC [9] was 0.39 µg/mL. It also gave an MIC [10] of 0.2 µg/mL, an MIC [11, 28] of 1.56 µg/mL and an MIC [12] of 0.1 µg/mL. The MIC [13] was 0.2 µg/mL, the MIC ([14]; read-out: Minimum Inhibitory Concentration (MIC), *S. marcescens No. 16-2, lactamase-producing strain, 10^6 CFU/ml) was 1.56 µg/mL and the MIC [15, 29] was 100 µg/mL. It also gave an MIC [16] of 1.56 µg/mL, an MIC [17, 25] of 0.2 µg/mL and an MIC ([18]; P. vulgaris HX-19, 10^6 CFU/ml) of 0.025 µg/mL. The MIC [19] was 0.1 µg/mL and the MIC [20, 26] was 0.2 µg/mL.

Work on `CCON=C(C(=O)N[C@@H]1C(=O)N2C(C(=O)[O-])=C(CSc3nc(-c4ccc(OC(C)=O)c(OC(C)=O)c4)cs3)CS[C@H]12)c1csc(N)n1.[Na+]` [Ex. 49, sodium 3-[4-(3,4-diacetoxyphenyl)-thiazol-2-yl]thiomethyl-7β-[2-(2-aminothiazol-4-yl)-2-ethoxyiminoacetamido]-3-cephem-4-carboxylate] yielded an MIC [1] of 0.78 µg/mL, an MIC ([2]; AKR17, 16 h, read-out: Minimum Inhibitory Concentration (MIC)) of 100 µg/mL and an MIC [3, 27] of 0.78 µg/mL. The MIC [4] was 0.025 µg/mL, the MIC [5] was 0.05 µg/mL and the MIC ([6]; Burkholderia cepacia, 23, 16 h) was 0.05 µg/mL. The MIC [7] was 0.1 µg/mL, the MIC [8, 23] was < 6 ng/mL and the MIC [9] was 0.1 µg/mL. The MIC [10] was 0.78 µg/mL, the MIC [11, 28] was 1.56 µg/mL and the MIC [12] was 6.25 µg/mL. The MIC [13] was 0.05 µg/mL, the MIC [14, 24] was 3.12 µg/mL and the MIC ([15]; read-out: Minimum Inhibitory Concentration (MIC), S. aureus 209P NIHJ-JC1, 10^6 CFU/ml, 37° C., 16 hours) was 1.56 µg/mL. It also gave an MIC [16] of 0.39 µg/mL, an MIC [17] of 0.1 µg/mL and an MIC [18] of 0.0125 µg/mL. It also gave an MIC [19] of 0.05 µg/mL and an MIC ([20]; read-out: Minimum Inhibitory Concentration (MIC), A. calcoaceticus No. 4) of 0.39 µg/mL.

`CO/N=C(\C(=O)N[C@@H]1C(=O)N2C(C(=O)O)=C(CSc3nc(-c4ccc(O)cc4)cs3)CS[C@H]12)c1csc(N)n1` [compound 10, sodium 7β-[2-(2-aminothiazol-4-yl)-2-methoxyiminoacetamido]-3-[4-(4-hydroxyphenyl)thiazol-2-yl]thiomethyl-3-cephem-4-carboxylate, reference compound] was tested, and the MIC [1] was 6.25 µg/mL, the MIC [2, 30] was > 100 µg/mL and the MIC [3, 24] was 12.5 µg/mL. The MIC [4] was 0.39 µg/mL, the MIC [5] was 0.78 µg/mL and the MIC ([6]; Burkholderia cepacia, 23, 16 h) was 3.12 µg/mL. For the same molecule, the MIC [7] was 0.78 µg/mL, the MIC [8, 23] was < 6 ng/mL and the MIC [9] was 1.56 µg/mL. The MIC [10] was 3.12 µg/mL, the MIC [11, 24] was 0.39 µg/mL and the MIC [12] was 3.12 µg/mL. For the same molecule, the MIC [13] was 1.56 µg/mL, the MIC [14, 24] was 3.12 µg/mL and the MIC [15, 29] was 0.2 µg/mL. The MIC [16] was 0.78 µg/mL, the MIC [17] was 0.78 µg/mL and the MIC ([18]; P. vulgaris HX-19, 10^6 CFU/ml) was < 0.006 µg/mL. It also gave an MIC [19] of 0.78 µg/mL and an MIC [20, 26] of 50 µg/mL.

`Nc1nc(/C(=N/OC(C(=O)O)c2ccc(O)c(O)c2)C(=O)N[C@@H]2C(=O)N3C(C(=O)O)=C(CSc4ncc(-c5ccc(O)c(O)c5)o4)CS[C@H]23)cs1` (stereo partly drawn) [Ex. 65, disodium 7β-(2-(2-aminothiazol-4-yl)-2-[(α-carboxylate-3,4-dihydroxybenzyl)oxyiminol]-acetamido}-3-[5-(3,4-dihydroxyphenyl)oxazol-2-yl]-thiomethyl-3-cephem-4-carboxylate] showed an MIC [1] of 1.56 µg/mL, an MIC [2, 30] of 0.2 µg/mL and an MIC [3, 24] of 0.39 µg/mL. For the same molecule, the MIC [4] was 0.05 µg/mL, the MIC [5] was 0.05 µg/mL and the MIC [6, 22] was < 0.006 µg/mL. For the same molecule, the MIC [7] was 0.2 µg/mL, the MIC [8, 23] was < 6 ng/mL and the MIC [9] was 0.78 µg/mL. The MIC [10] was 0.78 µg/mL, the MIC [11, 28] was 6.25 µg/mL and the MIC [12] was 0.2 µg/mL. The MIC [13] was 0.2 µg/mL, the MIC [14, 24] was 12.5 µg/mL and the MIC [15, 24] was 3.12 µg/mL. For the same molecule, the MIC [16] was 1.56 µg/mL, the MIC [17, 25] was 0.2 µg/mL and the MIC ([18]; P. vulgaris HX-19, 10^6 CFU/ml) was 0.1 µg/mL. The MIC [19] was 0.1 µg/mL and the MIC [20, 26] was 0.05 µg/mL.

Source: patent US5061794A, “Cephalosporin derivatives, and antibacterial agents” (priority 1986, dated 1991)
